Results reported in US10287265B2, “Enantiomers of 8-hydroxyquinoline derivatives and the synthesis thereof” (AVIDIN Co. Ltd., priority 2015, dated 2019).

Columns and labels:
C57BL6/J mice [1] = assay: Scopolamine-induced short-term memory impairment, Y maze test; assay type: in vivo, mouse; conditions: per os gavage; scopolamine 0.6 mg/kg i.p. 30 min prior to Y maze test
Description: (§1) In vivo experiments were carried out according to the National Institute of Health guidelines for the care and use of laboratory animals, approved by the French Ministry for Research and Technology. In the course of experiments, animals were housed at a standard temperature (22±1° C.) and in a light-controlled environment (lights on from 7 a.m. to 8 p.m.) with ad libitum access to food and water. Male C57BL/6 mice (C57BL/6J Rj, ref. SC-CJ-12w-M, Janvier, France) were housed 5 animals per cage. From one week before the start of the experiment until the end of the experiment, mice were housed individually. Animals were monitored twice-a-day by laboratory personnel (8 a.m. and 4 p.m.). In this project, young (14 weeks old) as well as aged (15-16 months old) mice were used. Experiments were carried out using 12 mice per experimental group.
Investigation of short-term working memory—Y maze test Y maze tests were carried out as previously described. Prior to testing, mice were brought to the experimental room for at least 30 min to acclimatize to experimental room conditions. […] Each arm entry was recorded with those entries being counted where the mouse completely placed its hind paws in the chosen arm. […] Results were calculated as the percentage of the ratio of actual detected alternations to possible alternations (defined as the number of total arm entries minus 2). […]

C57BL6/J mice [2] = assay: Short-term memory impairment caused by amyloid peptide aggregates (icv Aβ oligomers), Y maze test; assay type: in vivo, mouse; conditions: Y maze at day 4 post Aβ
Description: as §1
Investigation of short-term working memory—Y maze test Y maze tests were carried out as previously described. Prior to testing, mice were brought to the experimental room for at least 30 min to acclimatize to experimental room conditions. The Y maze is made of opaque Plexiglas and each arm is 40 cm long, 16 cm high, 9 cm wide and positioned at equal angles. The apparatus was placed in the test room in such a way that it was brightened homogeneously with 12-15 lux in the arms as well as in the central zone. One mouse at a time was placed at the end of one arm and was allowed to move in the maze freely during a 5 min examination. Each arm entry was recorded with those entries being counted where the mouse completely placed its hind paws in the chosen arm. […] Results were calculated as the percentage of the ratio of actual detected alternations to possible alternations (defined as the number of total arm entries minus 2).
For the examination of memory impairment caused by Aβ oligomers, a mouse model developed and validated by SynAging was used. […] At day 4 post Aβ treatment, short-term memory was assessed with the Y maze test. […]
At day 4 post Aβ treatment, short-term memory was assessed with the Y maze test.

erythropoietin protein = assay: Erythropoietin protein expression in hippocampus and cortex of aged animals, chronic treatment, ELISA; assay type: in vivo, mouse; conditions: 18-month-old C57BL/6 female mice, 20 mg/l in drinking water for four months
Description: Twenty-four 18-month-old female C57BL/6 mice (Innovo Ltd., Budapest, Hungary) were treated according to the experimental setup described in Example 34. in two groups: Group 1—control group given normal drinking water, Group 2—treated with the R-enantiomer according to Example 2, administered in drinking water (20 mg/l) for four months. Brain preparation was carried out under conditions described in Example 34. Brain samples were washed with 1×PBS to remove blood, then tissues were homogenized in 1×PBS and for 3 days, they were held at −20° C. overnight and 25° C. at daytime every day. After the third round of thawing, samples were centrifuged (5 min, 5000 rpm) and the supernatant was collected for further protein expression studies. Determination of erythropoietin levels of samples was done with Quantikine® ELISA Mouse Erythropoetin (R&D Systems, cat. no.: MEPOOB) according to the manufacturer's protocol. At the end of the test, the developed colour was measured with a THERMO-LABSYSTEMS Multiskan FC Absorbance Plate Reader at 450 nm. Results obtained through ELISA and measured at 450 nm were compared to standard dilution series of purified mouse EPO. Values (pg/ml) obtained based on the dilution series were compared to actual protein content of tissues. Protein content of tissue homogenates was measured with Nanodrop-1000 adjusted for BSA protein, at 280 nm.

[3] = system: BALB/c ear skin graft on C57BL/6 recipient mice; assay: Mouse skin transplantation, graft rejection scoring; assay type: in vivo; conditions: 5 mg/kg once every day from transplantation; Example 2 orally, tacrolimus intraperitoneal; scoring at day 9 and day 10
Description: Mouse skin transplantation is a standard method to assay host T cell responses to MHC-disparate donor antigens, which protocol was followed in the present example (Garrod and Cahalan; 2008). Briefly, WT C57BL/6 recipient mice (8-12 weeks old) and WT BALB/c donor mice (8-12 weeks old) were anesthetized with a combination of 10 mg/kg Xylazine and 100 mg/kg Ketamine administered by i.p. injection and 0.05 mg/kg Buprenorphine was administered by subcutaneous injection for analgesia. Ear skin (1.0 cm2) from the WT BALB/c donor mouse was grafted onto the flank of the WT C57BL/6 recipient. The implanted skin (graft) was covered with a sterile bandage, which was removed on day 7 post-transplant.
Recipients received either no treatment (controls), or treated with compound according to Example 2 orally at 5 mg/kg dose, once every day until the end of the experiment from the day of transplantation. […]
Different scores were used to define the quality of the grafts: intact grafts (Score 0), early stages of rejection (Score 1-4, corresponding to first clear signals of graft rejection: 1; >25% rejection rate: 2; >50% rejection rate: 3; >75% rejection rate: 4) up to complete graft rejection (Score 5). […] Average scores with SEM were calculated for each group.

Cc1ccnc(N[C@H](c2ccc(C(F)(F)F)cc2)c2ccc3cccnc3c2O)n1 [Example 2, 7-[(R)-[(4-Methylpyrimidin-2-yl)amino][4-(trifluoromethyl)phenyl]methyl]quinolin-8-ol]
inhibition of scopolamine-induced short-term memory impairment (C57BL6/J mice [1]): inhibited | inhibition of short-term memory impairment caused by fibrillar aggregates of amyloid peptides (C57BL6/J mice [2]; 4 mg/kg body weight per os once daily for four days): inhibited | inhibition of short-term memory impairment caused by fibrillar aggregates of amyloid peptides, dose dependence (C57BL6/J mice [2]; 0.5, 2 and 4 mg/kg body weight per os once daily for four days): in a dose-dependent manner | EPO protein levels in hippocampal and cortical samples compared to untreated control mice (erythropoietin protein): induced increased EPO protein levels in both hippocampal and cortical samples | skin graft rejection score (0-5) [3]: smaller score values both on day 9 and on day 10
